Assays:
[1] = Phase 1 single and multiple ascending dose safety, tolerance, pharmacokinetic studies in healthy volunteers; type: in vivo, human; settings: Phase I pharmacokinetic analyses
Source text: Three Phase I clinical studies have established butanetap's safety. […] Therefore, we conclude that a much lower single daily butanetap dose would be effective in the proposed study.

[2] = tested on: aSYN in SH-SY-5Y human neuroblastoma cells; assay: alpha-synuclein in vitro, Western blot; type: cell-based; settings: 0, 0.1, 1, 5 and 10 μM, FIG. 5
Experimental: • A. FIG. 5, alpha-synuclein in vitro. […] On the left is a Western blot showing butanetap inhibition of aSYN in relation to Actin standard at concentrations of 0, 0.1, 1, 5 and 10 μM and on the right a graph showing the same data plotted for statistical analysis purposes. • B. FIG. 6, alpha-synuclein brain in vivo. […] The animals were only treated for 2 weeks, so in brain it takes butanetap only 2 weeks to lower levels of alpha-synuclein. • C. FIG. 7, alpha-synuclein in gut in vivo. Gut levels of aSYN following treatment of PD A53T mice with 10 mg/kg for 21 weeks and 21 days reduced αSYN levels in the gut as shown by Western Blot.

[3] = tested on: Immortalized Mouse Astrocytes—SV40T (IMA2.1); assay: Gingipain cytotoxicity on astrocytes, AlamarBlue viability; type: cell-based; settings: retest at much lower concentrations, 1 nM, FIG. 10
Experimental: Immortalized Mouse Astrocytes—SV40T (IMA2.1), immortalized Mouse Microglia (SIM-A9) and immortalized neuroblastoma (SH-SY5Y) cells were infected for 48 hours with gingipains HRgpA and RgpB (arginine gingipains), and Kgp (lysine-specific cysteine proteinase—Lys-gingipain, KGP). After 48 hours the cells were assessed for viability with the AlamarBlue assay and the percentage of dead or alive cells versus control was plotted. […] As expected, since neither are dying, […]. […] Therefore, we expect the efficacious buntanetap dose to fight P. gingivalis infection to be the same as to treat Alzheimer's and Parkinson's disease has no impact on the microglia or neuroblastoma survival in the presence of gingipains.
FIG. 10 show the results of retesting of the gingipain effect on astroglia at much lower concentrations.

With `CN1CC[C@]2(C)c3cc(OC(=O)Nc4ccccc4)ccc3N(C)C12` (stereo partly drawn) [butanetap, (3aR)-1,3a,8-trimethyl-1,2,3,3a,8,8a-hexahydropyrrolo[2,3-b]indol-5-yl phenylcarbamate] the “concentration in brain relative to plasma” value [1] was “about 8 times”, the “aSYN in relation to Actin standard” value [2] was “lowers aSYN in vitro in a dose-dependent manner” and the “protection of gingipain infected astrocytes” value [3] was “completely protected”. The “protection of gingipain infected astrocytes” value ([3]; listed as buntanetap) was “protects astrocytes at very low concentrations”.
